The target in experiment [1] is T1, CDK1:Cyclin-B (Homo sapiens, UniProt P06493).
T1 construct: purchased New England Biolabs, Beverly, Mass; 6020; host or cells: insect cells
Put plainly: CDK1 Screening Assay. The experiment is classed as biochemical.

Experiment [2] addresses T2, murine Aurora-A (Mus musculus, UniProt P97477).
T2 construct: replaced with the full length protein encoding the murine Aurora-A; made in house; host or cells: sf9 insect cells
T2 sequence (P97477 1-395): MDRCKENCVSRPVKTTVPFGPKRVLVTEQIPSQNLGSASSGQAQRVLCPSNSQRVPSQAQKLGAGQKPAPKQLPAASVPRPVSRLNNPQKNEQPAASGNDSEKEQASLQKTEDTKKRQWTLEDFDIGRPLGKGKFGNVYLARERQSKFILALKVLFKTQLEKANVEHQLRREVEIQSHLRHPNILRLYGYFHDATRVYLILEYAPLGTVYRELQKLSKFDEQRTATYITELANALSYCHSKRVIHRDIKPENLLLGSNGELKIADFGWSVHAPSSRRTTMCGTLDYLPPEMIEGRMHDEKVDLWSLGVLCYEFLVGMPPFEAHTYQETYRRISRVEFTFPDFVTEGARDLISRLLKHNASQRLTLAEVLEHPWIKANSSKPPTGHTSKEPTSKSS
Put plainly: Aurora-A Screening Assay. It is filed as biochemical.

Experiment [3] deals with T3, HER2 cytoplasmic domain (Homo sapiens, UniProt P04626).
T3 construct: polyhistidine (N)
T3 sequence (P04626 676-1255 limits assumed): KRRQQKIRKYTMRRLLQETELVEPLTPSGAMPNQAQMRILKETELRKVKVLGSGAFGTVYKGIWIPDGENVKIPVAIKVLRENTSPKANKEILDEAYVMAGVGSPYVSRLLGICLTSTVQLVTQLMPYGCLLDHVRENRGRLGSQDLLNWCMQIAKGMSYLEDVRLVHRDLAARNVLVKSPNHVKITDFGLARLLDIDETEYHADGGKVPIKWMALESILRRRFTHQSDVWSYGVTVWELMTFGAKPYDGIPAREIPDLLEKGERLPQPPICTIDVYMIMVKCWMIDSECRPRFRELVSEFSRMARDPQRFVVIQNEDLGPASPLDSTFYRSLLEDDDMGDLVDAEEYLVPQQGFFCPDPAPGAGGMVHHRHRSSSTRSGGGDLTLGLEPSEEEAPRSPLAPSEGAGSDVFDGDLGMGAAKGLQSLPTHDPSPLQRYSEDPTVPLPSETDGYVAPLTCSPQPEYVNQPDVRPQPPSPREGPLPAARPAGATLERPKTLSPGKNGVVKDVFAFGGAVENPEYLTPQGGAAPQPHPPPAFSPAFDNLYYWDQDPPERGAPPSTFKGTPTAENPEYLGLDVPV
The experiment can be described thus: HER2 Kinase Screening Assay. It is filed as biochemical. Particulars: > means no observed 50% inhibition at the indicated test concentration; ~ means approximately 50% inhibition at that concentration.

The target of experiment [4] is T4, RET cytoplasmic domain (Homo sapiens, UniProt P07949).
T4 construct: the RET cytoplasmic domain consisting of the last 492 amino acids of the intracellular domain; histidine tag (N); made in house; host or cells: Hi5 insect cells
T4 sequence (P07949 658-1114 limits assumed): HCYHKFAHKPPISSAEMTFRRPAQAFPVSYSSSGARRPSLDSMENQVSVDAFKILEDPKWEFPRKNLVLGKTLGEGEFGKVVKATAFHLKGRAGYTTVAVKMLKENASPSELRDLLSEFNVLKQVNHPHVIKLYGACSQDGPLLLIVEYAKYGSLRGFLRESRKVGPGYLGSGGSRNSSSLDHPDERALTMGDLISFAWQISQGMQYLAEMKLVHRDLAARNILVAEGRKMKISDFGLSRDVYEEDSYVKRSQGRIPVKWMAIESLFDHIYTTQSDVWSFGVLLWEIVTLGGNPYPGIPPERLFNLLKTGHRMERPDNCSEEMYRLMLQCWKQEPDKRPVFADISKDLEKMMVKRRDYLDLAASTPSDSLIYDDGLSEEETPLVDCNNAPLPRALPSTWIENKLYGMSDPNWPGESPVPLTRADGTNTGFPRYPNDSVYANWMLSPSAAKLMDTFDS
The experiment can be described thus: RET Kinase Screening Assay. The experiment is classed as biochemical.

Experiment [5] concerns HeLa cervical adenocarcinoma. The experiment can be described thus: Inhibition of in vitro cell proliferation (HeLa).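 Note: cells exposed to compound for 24 h, then labelled 24 h with methyl 14C-thymidine, with uptake into DNA counted by scintillation against DMSO-only control wells.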 It is filed as cell-based, human. The following applies: Homo sapiens, 14C-thymidine incorporation. In general terms: Dividing cells build labelled thymidine or BrdU into new DNA.
Experiment [6] relates to HCT-116 colon carcinoma. Put plainly: Inhibition of in vitro cell proliferation (HCT116).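 Note: cells exposed to compound for 24 h, then 14C-thymidine added for a further 24 h and its uptake into DNA counted by scintillation, DMSO-only wells as control.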 It is filed as cell-based, human. Particulars: Homo sapiens, HCT-116, 14C-thymidine incorporation.
Experiment [7] concerns A375 malignant melanoma. The experiment can be described thus: Inhibition of in vitro cell proliferation (A375).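 Note: cells plated for 24 h, given compound for 24 h, then labelled with 14C-thymidine for another 24 h, with DMSO-only wells as control and counts read by scintillation.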 It is filed as cell-based, human. Particulars: Homo sapiens, A-375, 14C-thymidine incorporation.

T1 sequence (P06493 whole entry): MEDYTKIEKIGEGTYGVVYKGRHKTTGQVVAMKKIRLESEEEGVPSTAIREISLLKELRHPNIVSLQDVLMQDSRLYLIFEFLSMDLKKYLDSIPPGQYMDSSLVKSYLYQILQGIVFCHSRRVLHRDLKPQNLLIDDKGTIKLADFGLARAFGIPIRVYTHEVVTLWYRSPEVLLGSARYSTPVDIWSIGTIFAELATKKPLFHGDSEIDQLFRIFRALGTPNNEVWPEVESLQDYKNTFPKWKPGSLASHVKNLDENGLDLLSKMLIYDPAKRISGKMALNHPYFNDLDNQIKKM
T1 sequence (P14635 whole entry partner): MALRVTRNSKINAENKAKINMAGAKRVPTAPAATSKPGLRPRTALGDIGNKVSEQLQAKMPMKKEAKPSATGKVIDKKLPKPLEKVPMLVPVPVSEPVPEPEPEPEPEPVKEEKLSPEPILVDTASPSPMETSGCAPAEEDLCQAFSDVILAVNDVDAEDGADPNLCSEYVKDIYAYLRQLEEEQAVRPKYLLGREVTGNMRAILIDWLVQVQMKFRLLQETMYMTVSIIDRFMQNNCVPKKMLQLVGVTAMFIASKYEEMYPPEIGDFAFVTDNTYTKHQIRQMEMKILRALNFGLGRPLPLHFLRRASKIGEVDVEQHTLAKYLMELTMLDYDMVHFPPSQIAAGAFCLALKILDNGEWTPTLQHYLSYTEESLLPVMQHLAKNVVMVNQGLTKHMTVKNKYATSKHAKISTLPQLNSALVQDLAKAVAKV

Regarding `CON=Cc1c(N)ncnc1Oc1ccc2ncccc2c1` [Cpd 5, 4-amino-6-(quinolin-6-yloxy)-pyrimidine-5-carbaldehyde O-methyl-oxime], the half-inhibitory concentration (IC50) in experiment [1] was over 100000 nM; in experiment [2] it was over 10000 nM; in experiment [3], over 100000 nM; in experiment [4], 2010 nM; in experiment [5], 3.43 µM; in experiment [6], 2.87 µM. The compound also yielded a half-inhibitory concentration (IC50) in experiment [7] of 1.82 µM.

In the case of `CON=Cc1c(N)ncnc1Oc1ccc2cccnc2c1` [Cpd 6, 4-amino-6-(quinolin-7-yloxy)-pyrimidine-5-carbaldehyde O-methyl-oxime], the IC50 in experiment [1] was over 100000 nM; in experiment [2] it was over 100000 nM; in experiment [3] it was over 10000 nM; in experiment [4], over 10000 nM; in experiment [5], 1.82 µM; in experiment [6] it was 2.62 µM. In experiment [7], this compound had an IC50 of 0.886 µM.

On to `CON=Cc1c(N)ncnc1Oc1ccc2[nH]ccc2c1F` [Cpd 7, 4-amino-6-(4-fluoro-1H-indol-5-yloxy)-pyrimidine-5-carbaldehyde O-methyl-oxime], for which the IC50 was over 100000 nM in experiment [1]; over 100000 nM in experiment [2]; 653 nM in experiment [3]; over 100 nM in experiment [4]; 0.401 µM in experiment [5]; 0.365 µM in experiment [6]. Also, the half-inhibitory concentration (IC50) in experiment [7] worked out at 0.492 µM.

Regarding `CON=Cc1c(N)ncnc1Oc1cc2cc[nH]c2cc1F` [Cpd 8, 4-amino-6-(6-fluoro-1H-indol-5-yloxy)-pyrimidine-5-carbaldehyde O-methyl-oxime], the IC50 was over 100000 nM in experiment [1]; over 10000 nM in experiment [2]; over 1000 nM in experiment [3]; over 1000 nM in experiment [4]; 0.382 µM in experiment [5]; 0.422 µM in experiment [6]. The IC50 in experiment [7] is 0.327 µM.

With `CON=Cc1c(N)ncnc1Oc1ccc2[nH]cc(C)c2c1` [Cpd 9, 4-amino-6-(3-methyl-1H-indol-5-yloxy)-pyrimidine-5-carbaldehyde O-methyl-oxime], the IC50 in experiment [1] was over 100000 nM; in experiment [2], over 10000 nM; in experiment [3], 208 nM; in experiment [4], over 100000 nM; in experiment [5], 0.306 µM; in experiment [6], 0.385 µM. In experiment [7], the IC50 was 0.132 µM.

For the compound `CO/N=C/c1c(N)ncnc1Oc1ccc2[nH]ccc2c1` [Cpd 10, 4-amino-6-(1H-indol-5-yloxy)-pyrimidine-5-carbaldehyde O-methyl-oxime], the IC50 in experiment [1] was over 100000 nM; in experiment [2], over 10000 nM; in experiment [3], 697 nM; in experiment [4], 2230 nM; in experiment [5], 1.87 µM; in experiment [6], 3.52 µM. The IC50 in experiment [7] was determined as 0.783 µM.

As to `CON=Cc1c(N)ncnc1Oc1ccc2c(ccn2C)c1` [Cpd 11, 4-amino-6-(1-methyl-1H-indol-5-yloxy)-pyrimidine-5-carbaldehyde O-methyl-oxime], the half-inhibitory concentration (IC50) in experiment [1] was over 100000 nM; in experiment [2] it was over 100000 nM; in experiment [3], over 10000 nM; in experiment [4], over 100000 nM; in experiment [5], 0.375 µM; in experiment [6] it was 0.749 µM. The same compound showed an IC50 in experiment [7] of 0.326 µM.

For `Cc1cc2c(F)c(Oc3ncnc(N)c3C=NOCCO)ccc2[nH]1` [Cpd 12, 4-amino-6-(4-fluoro-2-methyl-1H-indol-5-yloxy)-pyrimidine-5-carbaldehyde O-(2-hydroxy-ethyl)-oxime], the IC50 in experiment [1] was over 100000 nM; in experiment [2] it was about 100000 nM; in experiment [3] it was 9590 nM; in experiment [4], over 10000 nM; in experiment [5] it was 0.406 µM; in experiment [6], 0.323 µM. Further, in experiment [7], the IC50 worked out at 0.372 µM.

Regarding `Cc1cc2c(F)c(Oc3ncnc(N)c3C=NOCCN3CCCC3)ccc2[nH]1` [Cpd 13, 4-amino-6-(4-fluoro-2-methyl-1H-indol-5-yloxy)-pyrimidine-5-carbaldehyde O-(2-pyrrolidin-1yl-ethyl)-oxime], the half-inhibitory concentration (IC50) was over 100000 nM in experiment [1]; about 100000 nM in experiment [2]; over 10000 nM in experiment [3]; over 100000 nM in experiment [4]; 4.22 µM in experiment [5]; 4.61 µM in experiment [6]. The midpoint of inhibition in experiment [7], the IC50, lay at 2.16 µM.

In the case of `CNCCON=Cc1c(N)ncnc1Oc1ccc2[nH]c(C)cc2c1F` [Cpd 16, 4-amino-6-(4-fluoro-2-methyl-1H-indol-5-yloxy)-pyrimidine-5-carbaldehyde O-(2-methylamino-ethyl)-oxime], the half-maximal inhibitory concentration (IC50) was over 100000 nM in experiment [1]; over 100000 nM in experiment [2]; 10900 nM in experiment [3]; over 100000 nM in experiment [4]; 2.01 µM in experiment [5]; 3.04 µM in experiment [6]. This compound also had a concentration for half-maximal inhibition (IC50) in experiment [7] of 0.345 µM.

With `COCCON=Cc1c(N)ncnc1Oc1ccc2[nH]c(C)cc2c1F` [Cpd 28, 4-amino-6-(4-fluoro-2-methyl-1H-indol-5-yloxy)-pyrimidine-5-carbaldehyde O-(2-methoxy-ethyl)-oxime], the IC50 in experiment [1] was over 100000 nM; in experiment [2], over 100000 nM; in experiment [3], about 10000 nM; in experiment [4] it was over 100000 nM; in experiment [5], 0.308 µM; in experiment [6] it was 0.387 µM. The compound further gave an IC50 in experiment [7] of 0.233 µM.

`Cc1cc2c(F)c(Oc3ncnc(N)c3C=NOCCCO)ccc2[nH]1` [Cpd 29, 4-amino-6-(4-fluoro-2-methyl-1H-indol-5-yloxy)-pyrimidine-5-carbaldehyde O-(3-hydroxy-propyl)-oxime]: the 50% inhibitory concentration (IC50) in experiment [1] was over 100000 nM; in experiment [2], over 10000 nM; in experiment [3] it was 4630 nM; in experiment [4], over 10000 nM; in experiment [5], 0.362 µM; in experiment [6], 0.452 µM. In experiment [7], 0.336 µM corresponded to half-maximal inhibition (IC50).

Turning to `CCCON=Cc1c(N)ncnc1Oc1ccc2[nH]c(C)cc2c1F` [Cpd 34, 4-amino-6-(4-fluoro-2-methyl-1H-indol-5-yloxy)-pyrimidine-5-carbaldehyde O-propyl-oxime], the IC50 in experiment [1] is over 100000 nM; in experiment [2] it was over 100000 nM; in experiment [3], over 100000 nM; in experiment [4], about 10000 nM; in experiment [5] it was 0.04 µM; in experiment [6], 0.03 µM. In experiment [7], this compound returned a half-maximal inhibitory concentration (IC50) of 0.028 µM.

For `Cc1cc2c(F)c(Oc3ncnc(N)c3C=NOCC3CCCCC3)ccc2[nH]1` [Cpd 35, 4-amino-6-(4-fluoro-2-methyl-1H-indol-5-yloxy)-pyrimidine-5-carbaldehyde O-cyclohexylmethyl-oxime], the IC50 in experiment [1] is over 100000 nM; in experiment [2], over 100000 nM; in experiment [3], over 100000 nM; in experiment [4], over 100000 nM; in experiment [5] it was 22.7 µM; in experiment [6], 16.1 µM. This compound showed an IC50 in experiment [7] of 4.92 µM.

As to `Cc1cc2c(F)c(Oc3ncnc(N)c3C=NOCc3ccccc3)ccc2[nH]1` [Cpd 36, 4-amino-6-(4-fluoro-2-methyl-1H-indol-5-yloxy)-pyrimidine-5-carbaldehyde O-benzyl-oxime], the IC50 is over 100000 nM in experiment [1]; over 100000 nM in experiment [2]; over 100000 nM in experiment [3]; over 100000 nM in experiment [4]; 0.266 µM in experiment [5]; 0.311 µM in experiment [6]. The compound further had an IC50 in experiment [7] of 0.062 µM.

Broadly, the IC50 is the concentration that gives 50% inhibition. The low end stands for inhibition by little substance, the high end for a need for much substance.
